Results: ChEMBL document CHEMBL3991601, “The target landscape of clinical kinase drugs” (Science, 2017)
Values belong to the compound of their own block, whether it stands above or below them. Activity calls are given as the source filed them.

Experiments:
[1] = target: T1, ATP-dependent RNA helicase DDX1 (Homo sapiens, UniProt Q92499)
T1 sequence (Q92499 whole entry): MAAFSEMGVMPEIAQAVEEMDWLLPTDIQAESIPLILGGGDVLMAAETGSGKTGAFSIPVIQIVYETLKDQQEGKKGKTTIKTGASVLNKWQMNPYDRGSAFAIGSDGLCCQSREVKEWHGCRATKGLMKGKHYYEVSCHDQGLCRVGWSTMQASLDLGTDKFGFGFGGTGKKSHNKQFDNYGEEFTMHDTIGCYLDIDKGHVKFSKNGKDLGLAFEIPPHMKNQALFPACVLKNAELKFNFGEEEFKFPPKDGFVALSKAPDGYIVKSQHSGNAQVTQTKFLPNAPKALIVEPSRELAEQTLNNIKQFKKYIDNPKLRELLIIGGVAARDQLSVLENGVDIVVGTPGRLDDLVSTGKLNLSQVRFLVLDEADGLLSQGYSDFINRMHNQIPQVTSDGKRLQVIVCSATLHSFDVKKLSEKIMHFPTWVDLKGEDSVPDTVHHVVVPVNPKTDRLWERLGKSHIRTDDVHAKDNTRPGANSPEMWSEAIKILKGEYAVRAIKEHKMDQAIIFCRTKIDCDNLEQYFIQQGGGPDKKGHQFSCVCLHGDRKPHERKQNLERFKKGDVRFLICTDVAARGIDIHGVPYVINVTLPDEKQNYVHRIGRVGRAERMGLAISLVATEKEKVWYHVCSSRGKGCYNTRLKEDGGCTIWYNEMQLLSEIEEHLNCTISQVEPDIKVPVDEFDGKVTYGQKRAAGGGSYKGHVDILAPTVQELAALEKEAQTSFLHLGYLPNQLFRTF

[2] = target: T2, Dynamin-like GTPase OPA1, mitochondrial (Homo sapiens, UniProt O60313)
T2 sequence (O60313 whole entry): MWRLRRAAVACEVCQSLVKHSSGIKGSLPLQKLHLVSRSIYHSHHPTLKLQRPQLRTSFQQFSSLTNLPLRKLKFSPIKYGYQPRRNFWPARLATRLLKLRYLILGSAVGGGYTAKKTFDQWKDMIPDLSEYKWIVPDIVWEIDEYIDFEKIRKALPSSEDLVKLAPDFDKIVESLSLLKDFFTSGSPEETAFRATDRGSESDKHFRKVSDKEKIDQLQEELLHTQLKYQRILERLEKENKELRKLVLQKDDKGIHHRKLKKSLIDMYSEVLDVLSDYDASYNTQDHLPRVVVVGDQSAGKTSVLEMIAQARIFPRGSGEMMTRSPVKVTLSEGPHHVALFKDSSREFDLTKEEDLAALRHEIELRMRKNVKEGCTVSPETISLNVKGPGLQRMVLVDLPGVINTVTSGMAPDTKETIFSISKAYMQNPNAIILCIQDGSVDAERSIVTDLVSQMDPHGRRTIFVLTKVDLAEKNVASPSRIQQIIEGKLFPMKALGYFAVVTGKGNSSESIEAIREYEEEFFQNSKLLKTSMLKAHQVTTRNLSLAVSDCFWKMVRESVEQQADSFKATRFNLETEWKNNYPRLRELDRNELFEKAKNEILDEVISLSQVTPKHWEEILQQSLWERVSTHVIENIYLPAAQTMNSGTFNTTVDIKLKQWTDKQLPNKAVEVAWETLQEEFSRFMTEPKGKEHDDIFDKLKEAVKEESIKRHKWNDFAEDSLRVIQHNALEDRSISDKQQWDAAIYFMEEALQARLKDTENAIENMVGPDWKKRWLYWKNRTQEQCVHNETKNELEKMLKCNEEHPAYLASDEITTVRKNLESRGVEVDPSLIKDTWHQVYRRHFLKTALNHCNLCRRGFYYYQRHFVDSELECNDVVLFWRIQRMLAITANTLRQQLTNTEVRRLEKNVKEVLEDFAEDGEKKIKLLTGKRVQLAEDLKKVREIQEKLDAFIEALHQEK

[3] = target: T3, Serine/threonine-protein kinase ULK3 (Homo sapiens, UniProt Q6PHR2)
T3 sequence (Q6PHR2 whole entry): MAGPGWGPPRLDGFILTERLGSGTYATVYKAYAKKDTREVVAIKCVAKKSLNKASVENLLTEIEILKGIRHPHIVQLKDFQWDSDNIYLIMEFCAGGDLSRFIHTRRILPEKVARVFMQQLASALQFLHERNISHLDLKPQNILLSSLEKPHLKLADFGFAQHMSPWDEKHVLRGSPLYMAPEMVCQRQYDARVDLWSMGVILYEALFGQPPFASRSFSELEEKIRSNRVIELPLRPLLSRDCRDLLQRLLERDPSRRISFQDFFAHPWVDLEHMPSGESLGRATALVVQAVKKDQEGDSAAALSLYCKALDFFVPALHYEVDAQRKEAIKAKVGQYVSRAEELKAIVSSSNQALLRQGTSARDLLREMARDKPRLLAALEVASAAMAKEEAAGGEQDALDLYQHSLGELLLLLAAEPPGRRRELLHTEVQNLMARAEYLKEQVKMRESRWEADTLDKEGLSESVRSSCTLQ

[4] = target: Ribosomal protein S6 kinase beta-1 (Homo sapiens, UniProt P23443)
[5] = target: Interleukin-1 receptor-associated kinase 1 (Homo sapiens, UniProt P51617)
[6] = target: T4, Dual specificity mitogen-activated protein kinase kinase 6 (Homo sapiens, UniProt P52564)
T4 sequence (P52564 whole entry): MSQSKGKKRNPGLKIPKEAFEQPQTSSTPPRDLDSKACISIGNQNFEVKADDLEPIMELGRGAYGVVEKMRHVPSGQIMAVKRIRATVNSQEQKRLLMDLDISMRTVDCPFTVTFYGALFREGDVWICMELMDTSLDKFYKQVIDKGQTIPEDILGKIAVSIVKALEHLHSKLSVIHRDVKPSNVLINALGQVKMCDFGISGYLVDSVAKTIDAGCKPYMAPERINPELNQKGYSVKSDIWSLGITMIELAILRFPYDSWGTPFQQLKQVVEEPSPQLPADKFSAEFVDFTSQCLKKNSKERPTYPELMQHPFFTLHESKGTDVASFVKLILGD

[7] = target: Structural maintenance of chromosomes protein 2 (Homo sapiens, UniProt O95347)
Further: in the data inactive means no Kd found up to 30 µM.

Ribosomal protein S6 kinase beta-1, sequence (P23443 whole entry): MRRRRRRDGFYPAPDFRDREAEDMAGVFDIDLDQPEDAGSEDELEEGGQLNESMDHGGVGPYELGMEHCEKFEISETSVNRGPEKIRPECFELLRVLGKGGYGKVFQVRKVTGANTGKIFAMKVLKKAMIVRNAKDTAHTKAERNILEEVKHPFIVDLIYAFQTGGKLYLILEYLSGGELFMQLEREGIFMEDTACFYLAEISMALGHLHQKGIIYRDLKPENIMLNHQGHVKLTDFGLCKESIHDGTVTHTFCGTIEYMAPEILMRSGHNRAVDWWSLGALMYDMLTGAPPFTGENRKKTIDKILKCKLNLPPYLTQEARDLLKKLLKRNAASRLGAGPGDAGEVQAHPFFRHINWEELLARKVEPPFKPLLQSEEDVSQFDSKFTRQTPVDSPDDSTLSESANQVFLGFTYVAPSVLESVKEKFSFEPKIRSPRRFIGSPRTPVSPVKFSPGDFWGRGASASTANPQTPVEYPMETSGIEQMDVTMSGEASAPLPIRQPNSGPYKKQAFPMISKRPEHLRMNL
Structural maintenance of chromosomes protein 2, sequence (O95347 whole entry): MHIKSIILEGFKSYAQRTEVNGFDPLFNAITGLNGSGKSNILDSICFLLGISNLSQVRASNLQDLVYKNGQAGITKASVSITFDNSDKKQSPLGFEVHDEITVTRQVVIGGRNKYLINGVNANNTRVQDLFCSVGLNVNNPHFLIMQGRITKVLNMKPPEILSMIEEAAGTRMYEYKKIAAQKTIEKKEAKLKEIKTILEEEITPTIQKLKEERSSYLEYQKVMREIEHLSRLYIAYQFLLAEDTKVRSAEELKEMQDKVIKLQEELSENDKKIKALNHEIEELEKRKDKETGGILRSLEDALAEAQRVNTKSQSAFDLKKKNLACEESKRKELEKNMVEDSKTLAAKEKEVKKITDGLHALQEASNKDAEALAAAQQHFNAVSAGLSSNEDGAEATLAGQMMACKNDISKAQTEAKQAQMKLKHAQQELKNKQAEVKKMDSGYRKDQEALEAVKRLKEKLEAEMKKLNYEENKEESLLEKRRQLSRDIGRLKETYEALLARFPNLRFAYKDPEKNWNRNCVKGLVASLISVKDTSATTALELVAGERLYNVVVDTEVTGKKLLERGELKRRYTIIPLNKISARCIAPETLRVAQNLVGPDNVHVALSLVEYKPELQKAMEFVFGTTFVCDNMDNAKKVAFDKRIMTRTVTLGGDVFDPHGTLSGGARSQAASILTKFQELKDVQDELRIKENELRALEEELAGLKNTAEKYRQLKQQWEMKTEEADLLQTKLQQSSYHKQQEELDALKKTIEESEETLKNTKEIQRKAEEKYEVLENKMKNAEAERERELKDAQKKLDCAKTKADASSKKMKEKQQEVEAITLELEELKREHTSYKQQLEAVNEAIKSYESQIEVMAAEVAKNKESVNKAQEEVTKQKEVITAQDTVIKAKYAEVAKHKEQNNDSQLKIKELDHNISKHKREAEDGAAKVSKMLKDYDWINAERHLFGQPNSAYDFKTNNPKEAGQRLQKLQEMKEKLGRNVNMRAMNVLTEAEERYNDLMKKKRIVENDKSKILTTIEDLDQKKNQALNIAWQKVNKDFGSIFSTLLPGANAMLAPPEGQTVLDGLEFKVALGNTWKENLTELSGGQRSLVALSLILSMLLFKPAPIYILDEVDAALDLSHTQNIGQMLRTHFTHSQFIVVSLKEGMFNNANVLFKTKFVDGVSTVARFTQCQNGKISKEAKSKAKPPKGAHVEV
Interleukin-1 receptor-associated kinase 1, sequence (P51617 whole entry): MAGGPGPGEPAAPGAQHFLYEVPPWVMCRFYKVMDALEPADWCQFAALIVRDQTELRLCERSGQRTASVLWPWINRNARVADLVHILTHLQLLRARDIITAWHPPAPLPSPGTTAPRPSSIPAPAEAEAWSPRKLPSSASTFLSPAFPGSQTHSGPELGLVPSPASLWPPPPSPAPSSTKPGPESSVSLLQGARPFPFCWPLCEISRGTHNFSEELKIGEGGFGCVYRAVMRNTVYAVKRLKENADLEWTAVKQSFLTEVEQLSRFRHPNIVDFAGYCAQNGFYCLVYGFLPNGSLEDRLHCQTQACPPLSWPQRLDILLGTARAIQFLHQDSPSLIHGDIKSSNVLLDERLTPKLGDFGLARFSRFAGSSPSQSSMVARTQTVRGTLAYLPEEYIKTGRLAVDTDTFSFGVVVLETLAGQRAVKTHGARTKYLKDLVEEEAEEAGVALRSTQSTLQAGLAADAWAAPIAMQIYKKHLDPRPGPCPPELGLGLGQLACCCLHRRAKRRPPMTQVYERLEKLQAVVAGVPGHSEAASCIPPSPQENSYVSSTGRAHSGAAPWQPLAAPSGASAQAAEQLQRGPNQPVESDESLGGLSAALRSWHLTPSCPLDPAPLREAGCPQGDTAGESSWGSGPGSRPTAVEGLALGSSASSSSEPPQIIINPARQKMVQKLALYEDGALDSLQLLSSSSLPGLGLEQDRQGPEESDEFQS

SMILES: CC(C)Nc1cc(-c2c[nH]c(C(=O)N[C@H](CO)c3cccc(Cl)c3)c2)c(Cl)cn1 [ULIXERTINIB]
Kd [1]: > 30 µM (inactive)
Kd [2]: > 30 µM (inactive)
Kd [3]: > 30 µM (inactive)
Kd [4]: > 30 µM (inactive)
Kd [5]: > 30 µM (inactive)
Kd [6]: > 30 µM (inactive)
Kd [7]: > 30 µM (inactive)

SMILES: Cc1ccc(-n2nc(C(C)(C)C)cc2NC(=O)NCc2cc(F)ccc2Oc2ccc3c(cnn3CCO)c2)cc1 [PEXMETINIB]
Kd [1]: > 30 µM (inactive)
Kd [2]: > 30 µM (inactive)
Kd [3]: > 30 µM (inactive)
Kd [4]: > 30 µM (inactive)
Kd [5]: 4.37 µM (active)
Kd [6]: > 30 µM (inactive)
Kd [7]: > 30 µM (inactive)

SMILES: OCCn1cc(-c2cnc3nnn(Cc4ccc5ncccc5c4)c3n2)cn1 [PF-04217903]
Kd [1]: > 30 µM (inactive)
Kd [2]: > 30 µM (inactive)
Kd [3]: > 30 µM (inactive)
Kd [4]: > 30 µM (inactive)
Kd [5]: > 30 µM (inactive)
Kd [6]: > 30 µM (inactive)
Kd [7]: > 30 µM (inactive)

SMILES: CC(=O)Nc1cccc(-n2c(=O)n(C3CC3)c(=O)c3c(Nc4ccc(I)cc4F)n(C)c(=O)c(C)c32)c1 [TRAMETINIB]
Kd [1]: > 30 µM (inactive)
Kd [2]: > 30 µM (inactive)
Kd [3]: > 30 µM (inactive)
Kd [4]: > 30 µM (inactive)
Kd [5]: > 30 µM (inactive)
Kd [6]: > 30 µM (inactive)
Kd [7]: > 30 µM (inactive)

SMILES: COC(=O)N[C@@H](C)CNc1nccc(-c2cn(C(C)C)nc2-c2cc(Cl)cc(NS(C)(=O)=O)c2F)n1 [ENCORAFENIB]
Kd [1]: > 30 µM (inactive)
Kd [2]: > 30 µM (inactive)
Kd [3]: > 30 µM (inactive)
Kd [4]: > 30 µM (inactive)
Kd [5]: 0.247 µM (active)
Kd [6]: > 30 µM (inactive)
Kd [7]: > 30 µM (inactive)

SMILES: CCn1c(=O)c(-c2cc[nH]n2)cc2c(C)nc(N)nc21 [VOXTALISIB]
Kd [1]: > 30 µM (inactive)
Kd [2]: > 30 µM (inactive)
Kd [3]: > 30 µM (inactive)
Kd [4]: > 30 µM (inactive)
Kd [5]: > 30 µM (inactive)
Kd [6]: > 30 µM (inactive)
Kd [7]: > 30 µM (inactive)

SMILES: Cc1ccc(NC(=O)c2ccc(CN3CC[C@H](N(C)C)C3)c(C(F)(F)F)c2)cc1Nc1nccc(-c2cncnc2)n1 [BAFETINIB]
Kd [1]: > 30 µM (inactive)
Kd [2]: > 30 µM (inactive)
Kd [3]: > 30 µM (inactive)
Kd [4]: > 30 µM (inactive)
Kd [5]: 2.06 µM
Kd [6]: > 30 µM (inactive)
Kd [7]: > 30 µM (inactive)

SMILES: Cn1cc(-c2ccc(F)c(C(F)(F)F)c2)nc1C1CCN(c2ncnc3[nH]ncc23)CC1 [LY-2584702]
Kd [1]: > 30 µM (inactive)
Kd [2]: > 30 µM (inactive)
Kd [3]: > 30 µM (inactive)
Kd [4]: 0.015 µM (active)
Kd [5]: > 30 µM (inactive)
Kd [6]: > 30 µM (inactive)
Kd [7]: > 30 µM (inactive)

SMILES: N[C@@H]1CCCN(c2c(/C=C3\SC(=O)NC3=O)cccc2-c2ccccc2)C1
Kd [1]: > 30 µM (inactive)
Kd [2]: > 30 µM (inactive)
Kd [3]: > 30 µM (inactive)
Kd [4]: > 30 µM (inactive)
Kd [5]: > 30 µM (inactive)
Kd [6]: > 30 µM (inactive)
Kd [7]: > 30 µM (inactive)

SMILES: CNC(=O)CN1CCC(Oc2cc3c(Nc4cccc(Cl)c4F)ncnc3cc2OC)CC1 [SAPITINIB]
Kd [1]: > 30 µM (inactive)
Kd [2]: > 30 µM (inactive)
Kd [3]: > 30 µM (inactive)
Kd [4]: > 30 µM (inactive)
Kd [5]: > 30 µM (inactive)
Kd [6]: > 30 µM (inactive)
Kd [7]: > 30 µM (inactive)

SMILES: CNC(=O)c1cc(Oc2ccc(NC(=O)Nc3ccc(Cl)c(C(F)(F)F)c3)c(F)c2)ccn1 [REGORAFENIB]
Kd [1]: > 30 µM (inactive)
Kd [2]: > 30 µM (inactive)
Kd [3]: > 30 µM (inactive)
Kd [4]: > 30 µM (inactive)
Kd [5]: > 30 µM (inactive)
Kd [6]: > 30 µM (inactive)
Kd [7]: > 30 µM (inactive)

SMILES: COCCNCc1ccc(-c2cc3nccc(Oc4ccc(NC(=S)NC(=O)Cc5ccc(F)cc5)cc4F)c3s2)nc1 [GLESATINIB]
Kd [1]: > 30 µM (inactive)
Kd [2]: > 30 µM (inactive)
Kd [3]: > 30 µM (inactive)
Kd [4]: > 30 µM (inactive)
Kd [5]: > 30 µM (inactive)
Kd [6]: > 30 µM (inactive)
Kd [7]: > 30 µM (inactive)

SMILES: CN1CC[C@@H](c2c(O)cc(O)c3c(=O)cc(-c4ccccc4Cl)oc23)[C@@H]1CO
Kd [1]: > 30 µM (inactive)
Kd [2]: > 30 µM (inactive)
Kd [3]: > 30 µM (inactive)
Kd [4]: > 30 µM (inactive)
Kd [5]: > 30 µM (inactive)
Kd [6]: > 30 µM (inactive)
Kd [7]: > 30 µM (inactive)

More lines, now with the values ahead:

Kd [1]: > 30 µM (inactive)
Kd [2]: > 30 µM (inactive)
Kd [3]: 0.297 µM (active)
Kd [4]: > 30 µM (inactive)
Kd [5]: > 30 µM (inactive)
Kd [6]: > 30 µM (inactive)
Kd [7]: > 30 µM (inactive)
SMILES: O=C(Nc1ccc(-c2ccnc(Nc3ccc(N4CCOCC4)cc3)n2)cc1)C1CCCN1 (stereo unspecified) [XL-019]

Kd [1]: > 30 µM (inactive)
Kd [2]: > 30 µM (inactive)
Kd [3]: > 30 µM (inactive)
Kd [4]: > 30 µM (inactive)
Kd [5]: > 30 µM (inactive)
Kd [6]: > 30 µM (inactive)
Kd [7]: > 30 µM (inactive)
SMILES: COc1ccc(-c2ccc3c(N4CCOC[C@@H]4C)nc(N4CCOC[C@@H]4C)nc3n2)cc1CO [AZD-8055]

Kd [1]: > 30 µM (inactive)
Kd [2]: > 30 µM (inactive)
Kd [3]: > 30 µM (inactive)
Kd [4]: > 30 µM (inactive)
Kd [5]: > 30 µM (inactive)
Kd [6]: > 30 µM (inactive)
Kd [7]: > 30 µM (inactive)
SMILES: COc1cc(CCc2cc(NC(=O)c3ccc(N4C[C@@H](C)N[C@@H](C)C4)cc3)n[nH]2)cc(OC)c1 [AZD-4547]

Kd [1]: > 30 µM (inactive)
Kd [2]: > 30 µM (inactive)
Kd [3]: > 30 µM (inactive)
Kd [4]: > 30 µM (inactive)
Kd [5]: > 30 µM (inactive)
Kd [6]: > 30 µM (inactive)
Kd [7]: > 30 µM (inactive)
SMILES: CNC(=O)c1ccc(C)c(-n2c(C)cc(OCc3ccc(F)cc3F)c(Br)c2=O)c1 [PH-797804]

Kd [1]: > 30 µM (inactive)
Kd [2]: > 30 µM (inactive)
Kd [3]: > 30 µM (inactive)
Kd [4]: > 30 µM (inactive)
Kd [5]: > 30 µM (inactive)
Kd [6]: > 30 µM (inactive)
Kd [7]: > 30 µM (inactive)
SMILES: CCN1CCN(Cc2ccc(-c3cc4c(N[C@H](C)c5ccccc5)ncnc4[nH]3)cc2)CC1 [AEE-788]
